Values quoted from earlier work, collected in patent US6200975A, “Substituted 1,2,4-triazolo[3,4-a]phthalazine derivatives as GABA alpha 5 ligands” (Merck Sharp & Dohme Limited, priority 1997, dated 2001).

Settings: reported by McNamara and Skelton

Question: With `COC(=O)c1cc2c(cn1)[nH]c1ccccc12` [β-CCM] as the compound, how does the “spatial learning in the Morris watermaze” value read?
Answer: enhanced spatial learning
